ChEMBL document CHEMBL5331051, “Cationic, amphipathic small molecules based on a triazine-piperazine-triazine scaffold as a new class of antimicrobial agents” (Eur J Med Chem, 2022)
Active and inactive are the calls of the source. No cut-off for these calls is given here.

Legend:
Cell membrane = assay: Induction of outer membrane permeabilization in Escherichia coli KCTC 1682 assessed as increase in fluorescence intensity at 2 to 8 ug/ml by NPN staining based analysis; conditions: dose 2-8 µg/ml
Staphylococcus aureus [1] = assay: Antibacterial activity against Staphylococcus aureus KCTC 1621 strain assessed as bacterial growth inhibition measured at 18 to 24 hrs in presence of 6 uM NH4Cl by microdilution assay; assay type: functional; conditions: time 18-24 hrs
Pseudomonas aeruginosa [2] = assay: Additive antibacterial activity against multidrug-resistant Pseudomonas aeruginosa CCARM 2095 strain assessed as bacterial growth inhibition by checkerboard assay; assay type: functional
Pseudomonas aeruginosa [3] = assay: Additive antibacterial activity against multidrug-resistant Pseudomonas aeruginosa CCARM 2095 strain assessed as chloramphenicol MIC by checkerboard assay; assay type: functional
Pseudomonas aeruginosa [4] = assay: Additive antibacterial activity against multidrug-resistant Pseudomonas aeruginosa CCARM 2095 strain assessed as ciprofloxacin MIC by checkerboard assay; assay type: functional
Pseudomonas aeruginosa [5] = assay: Additive antibacterial activity against multidrug-resistant Pseudomonas aeruginosa CCARM 2095 strain assessed as Oxacillin MIC by checkerboard assay; assay type: functional
Pseudomonas aeruginosa [6] = assay: Additive antibacterial activity against multidrug-resistant Pseudomonas aeruginosa CCARM 2095 strain assessed as bacterial growth inhibition in presence of chloramphenicol by checkerboard assay; assay type: functional
Pseudomonas aeruginosa [7] = assay: Additive antibacterial activity against multidrug-resistant Pseudomonas aeruginosa CCARM 2095 strain assessed as bacterial growth inhibition in presence of oxacillin by checkerboard assay; assay type: functional
Pseudomonas aeruginosa [8] = assay: Additive antibacterial activity against multidrug-resistant Pseudomonas aeruginosa CCARM 2095 strain assessed as oxacillin fractional inhibitory concentration by checkerboard assay; assay type: functional
Pseudomonas aeruginosa [9] = assay: Additive antibacterial activity against multidrug-resistant Pseudomonas aeruginosa CCARM 2095 strain assessed as fractional inhibitory concentration in presence of chloramphenicol by checkerboard assay; assay type: functional
Pseudomonas aeruginosa [10] = assay: Additive antibacterial activity against multidrug-resistant Pseudomonas aeruginosa CCARM 2095 strain assessed as fractional inhibitory concentration in presence of oxacillin by checkerboard assay; assay type: functional
Pseudomonas aeruginosa [11] = assay: Additive antibacterial activity against multidrug-resistant Pseudomonas aeruginosa CCARM 2095 strain assessed as fractional inhibitory concentration index in presence of ciprofloxacin by checkerboard assay; assay type: functional
Pseudomonas aeruginosa [12] = assay: Additive antibacterial activity against multidrug-resistant Pseudomonas aeruginosa CCARM 2095 strain assessed as fractional inhibitory concentration index in presence of oxacillin by checkerboard assay; assay type: functional
Staphylococcus aureus [13] = assay: Additive antibacterial activity against methicillin-resistant Staphylococcus aureus CCARM 3089 strain assessed as bacterial growth inhibition in presence of oxacillin by checkerboard assay; assay type: functional
Staphylococcus aureus [14] = assay: Antibacterial activity against multidrug-resistant Staphylococcus aureus CCARM 3089 strain assessed as fractional inhibitory concentration by checkerboard assay; assay type: functional
Staphylococcus aureus [15] = assay: Antibacterial activity against multidrug-resistant Staphylococcus aureus CCARM 3089 strain assessed as ciprofloxacin fractional inhibitory concentration by checkerboard assay; assay type: functional
Staphylococcus aureus [16] = assay: Antibacterial activity against multidrug-resistant Staphylococcus aureus CCARM 3089 strain assessed as fractional inhibitory concentration index in presence of ciprofloxacin by checkerboard assay; assay type: functional
Staphylococcus aureus [17] = assay: Antibacterial activity against methicillin-resistant Staphylococcus aureus CCARM 3089 strain assessed as bacterial growth inhibition in presence of ciprofloxacin by checkerboard assay; assay type: functional
Staphylococcus aureus [18] = assay: Potency index, ratio of melittin MIC to test compound MIC against methicillin-resistant Staphylococcus aureus CCARM 3089 assessed as bacterial growth inhibition measured at 18 to 24 hrs by microdilution assay; assay type: functional; conditions: time 18-24 hrs
Staphylococcus aureus [19] = assay: Potency index, ratio of melittin MIC to test compound MIC against methicillin-resistant Staphylococcus aureus CCARM 3090 assessed as bacterial growth inhibition measured at 18 to 24 hrs by microdilution assay; assay type: functional; conditions: time 18-24 hrs
Staphylococcus aureus [20] = assay: Potency index, ratio of melittin MIC to test compound MIC against methicillin-resistant Staphylococcus aureus CCARM 3095 assessed as bacterial growth inhibition measured at 18 to 24 hrs by microdilution assay; assay type: functional; conditions: time 18-24 hrs
[21] = Drug localization in Escherichia coli KCTC 1682 cytoplasm incubated for 0.5 hrs by CDFA based confocal laser scanning microscopic analysis; assay type: ADME, subcellular
Staphylococcus aureus [22] = assay: Synergistic antibacterial activity against methicillin-resistant Staphylococcus aureus CCARM 3089 strain assessed as chloramphenicol MIC by checkerboard assay; assay type: functional
Staphylococcus aureus [23] = assay: Synergistic antibacterial activity against methicillin-resistant Staphylococcus aureus CCARM 3089 strain assessed as bacterial growth inhibition in presence of chloramphenicol by checkerboard assay; assay type: functional
Staphylococcus aureus [24] = assay: Synergistic antibacterial activity against methicillin-resistant Staphylococcus aureus CCARM 3089 strain assessed as fractional inhibitory concentration in presence of chloramphenicol by checkerboard assay; assay type: functional
Staphylococcus aureus [25] = assay: Synergistic antibacterial activity against multidrug-resistant Staphylococcus aureus CCARM 3089 strain assessed as chloramphenicol fractional inhibitory concentration by checkerboard assay; assay type: functional
Staphylococcus aureus [26] = assay: Additive antibacterial activity against multidrug-resistant Staphylococcus aureus CCARM 3089 strain assessed as chloramphenicol fractional inhibitory concentration by checkerboard assay; assay type: functional
Staphylococcus aureus [27] = assay: Synergistic antibacterial activity against multidrug-resistant Staphylococcus aureus CCARM 3089 strain assessed as fractional inhibitory concentration index in presence of chloramphenicol by checkerboard assay; assay type: functional
Pseudomonas aeruginosa [28] = assay: Synergistic bactericidal activity against multidrug-resistant Pseudomonas aeruginosa CCARM 2095 at 0.5 times MIC measured after 60 mins in presence of 0.5 times MIC of chloramphenicol by time-kill kinetics assay; assay type: functional, organism-based
Pseudomonas aeruginosa [29] = assay: Synergistic bactericidal activity against multidrug-resistant Pseudomonas aeruginosa CCARM 2095 at 0.5 times MIC measured after 60 mins in presence of 0.5 times MIC of ciprofloxacin by time-kill kinetics assay; assay type: functional, organism-based
Pseudomonas aeruginosa [30] = assay: Synergistic bactericidal activity against multidrug-resistant Pseudomonas aeruginosa CCARM 2095 at 0.5 times MIC measured after 60 mins in presence of 0.5 times MIC of oxacillin by time-kill kinetics assay; assay type: functional, organism-based
Escherichia coli = assay: Antibacterial activity against Escherichia coli assessed as bacterial growth inhibition measured at 18 to 24 hrs in presence of CDFA based microdilution assay; assay type: functional; conditions: time 18-24 hrs
Pseudomonas aeruginosa [31] = assay: Bacteriostatic activity against multidrug-resistant Pseudomonas aeruginosa CCARM 2095 measured after 24 hrs by time-kill kinetics assay; assay type: functional, organism-based
Pseudomonas aeruginosa [32] = assay: Antibacterial activity against multidrug-resistant Pseudomonas aeruginosa CCARM 2095 strain assessed as bacterial growth inhibition by checkerboard assay; assay type: functional
Pseudomonas aeruginosa [33] = assay: Antibacterial activity against multidrug-resistant Pseudomonas aeruginosa CCARM 2095 strain assessed as bacterial growth inhibition in presence of chloramphenicol by checkerboard assay; assay type: functional
Pseudomonas aeruginosa [34] = assay: Antibacterial activity against multidrug-resistant Pseudomonas aeruginosa CCARM 2095 strain assessed as fractional inhibitory concentration in presence of chloramphenicol by checkerboard assay; assay type: functional
Pseudomonas aeruginosa [35] = assay: Antibacterial activity against multidrug-resistant Pseudomonas aeruginosa CCARM 2095 strain assessed as fractional inhibitory concentration by checkerboard assay; assay type: functional
Staphylococcus aureus [36] = assay: Additive antibacterial activity against methicillin-resistant Staphylococcus aureus CCARM 3089 strain assessed as ciprofloxacin MIC by checkerboard assay; assay type: functional
Staphylococcus aureus [37] = assay: Additive antibacterial activity against methicillin-resistant Staphylococcus aureus CCARM 3089 strain assessed as bacterial growth inhibition in presence of ciprofloxacin by checkerboard assay; assay type: functional
Staphylococcus aureus [38] = assay: Additive antibacterial activity against multidrug-resistant Staphylococcus aureus CCARM 3089 strain assessed as fractional inhibitory concentration index in presence of ciprofloxacin by checkerboard assay; assay type: functional

SMILES: N=C(N)NCCNc1nc(NCCNC(=N)N)nc(N2CC(Cc3ccccc3)N(c3nc(NCCNC(=N)N)nc(NCCNC(=N)N)n3)CC2Cc2ccccc2)n1 (configuration not stated)
- Activity (Cell membrane): inactive
- MIC (Staphylococcus aureus [1]): 4.8 µM
- MIC (Pseudomonas aeruginosa [2]): 16 µg/mL
- MIC (Pseudomonas aeruginosa [3]): 256 µg/mL
- MIC (Pseudomonas aeruginosa [4]): 512 µg/mL
- MIC (Pseudomonas aeruginosa [5]): 256 µg/mL
- MIC (Pseudomonas aeruginosa [6]): 8 µg/mL
- MIC (Pseudomonas aeruginosa [7]): 16 µg/mL
- FIC (Pseudomonas aeruginosa [8]): 0.25
- FIC (Pseudomonas aeruginosa [9]): 0.5
- FIC (Pseudomonas aeruginosa [10]): 0.5
- fractional inhibitory concentration index (FICI) (Pseudomonas aeruginosa [11]): 1
- fractional inhibitory concentration index (FICI) (Pseudomonas aeruginosa [12]): 0.75
- MIC (Staphylococcus aureus [13]): 4 µg/mL
- FIC (Staphylococcus aureus [14]): 1
- FIC (Staphylococcus aureus [15]): 0.25
- fractional inhibitory concentration index (FICI) (Staphylococcus aureus [16]): 1.25
- MIC (Staphylococcus aureus [17]): 8 µg/mL

SMILES: NCCN(CCN)c1nc(NCc2ccccc2)nc(N2CC(Cc3ccccc3)N(c3nc(NCc4ccccc4)nc(N(CCN)CCN)n3)CC2Cc2ccccc2)n1 (configuration not stated)
- Activity (Cell membrane): inactive
- MIC (Staphylococcus aureus [1]): 5.4 µM
- Ratio (Staphylococcus aureus [18]): 2
- Ratio (Staphylococcus aureus [19]): 2
- Ratio (Staphylococcus aureus [20]): 2
- Drug uptake [21]: Active
- MIC (Staphylococcus aureus [22]): 128 µg/mL
- MIC (Staphylococcus aureus [23]): 2 µg/mL
- FIC (Staphylococcus aureus [24]): 0.5
- FIC (Staphylococcus aureus [25]): 0.25
- FIC (Staphylococcus aureus [26]): 0.25
- fractional inhibitory concentration index (FICI) (Staphylococcus aureus [27]): 0.5
- Activity (Pseudomonas aeruginosa [28]): Active
- Activity (Pseudomonas aeruginosa [29]): Active
- Activity (Pseudomonas aeruginosa [30]): Active
- MIC (Escherichia coli): 8 µg/mL
- Activity (Pseudomonas aeruginosa [31]): inactive

SMILES: NCCCN(CCCN)c1nc(NCc2ccccc2)nc(N2CC(Cc3ccccc3)N(c3nc(NCc4ccccc4)nc(N(CCCN)CCCN)n3)CC2Cc2ccccc2)n1 (configuration not stated)
- Activity (Cell membrane): inactive
- MIC (Staphylococcus aureus [1]): 5 µM
- Ratio (Staphylococcus aureus [18]): 2
- Ratio (Staphylococcus aureus [19]): 2
- Ratio (Staphylococcus aureus [20]): 2
- MIC (Staphylococcus aureus [22]): 128 µg/mL
- MIC (Staphylococcus aureus [23]): 1 µg/mL
- FIC (Staphylococcus aureus [24]): 0.5
- FIC (Staphylococcus aureus [25]): 0.25
- FIC (Staphylococcus aureus [26]): 0.25
- fractional inhibitory concentration index (FICI) (Staphylococcus aureus [27]): 0.5

SMILES: NCCCCNc1nc(NCCCCN)nc(N2CC(Cc3ccccc3)N(c3nc(NCCCCN)nc(NCCCCN)n3)CC2Cc2ccccc2)n1 (configuration not stated)
- Activity (Cell membrane): inactive
- MIC (Staphylococcus aureus [1]): 5.2 µM

SMILES: NCCNc1nc(NCCN)nc(N2CC(Cc3ccccc3)N(c3nc(NCCN)nc(NCCN)n3)CC2Cc2ccccc2)n1 (configuration not stated)
- Activity (Cell membrane): inactive
- MIC (Staphylococcus aureus [1]): 6.1 µM
- MIC (Pseudomonas aeruginosa [32]): 16 µg/mL
- MIC (Pseudomonas aeruginosa [5]): 512 µg/mL
- MIC (Pseudomonas aeruginosa [33]): 16 µg/mL
- MIC (Pseudomonas aeruginosa [7]): 8 µg/mL
- FIC (Pseudomonas aeruginosa [34]): 1 µg/mL
- FIC (Pseudomonas aeruginosa [35]): 0.25
- FIC (Pseudomonas aeruginosa [8]): 0.5
- FIC (Pseudomonas aeruginosa [10]): 0.5
- fractional inhibitory concentration index (FICI) (Pseudomonas aeruginosa [12]): 1
- MIC (Staphylococcus aureus [36]): 128 µg/mL
- MIC (Staphylococcus aureus [37]): 16 µg/mL
- fractional inhibitory concentration index (FICI) (Staphylococcus aureus [38]): 0.75
